We go through 4 compounds from ChEMBL document CHEMBL1201862, “PubChem BioAssay data set” (2004).

SMILES strings stand for the structures.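 The compound was tested at five concentrations on cells cultured in 96-well plates, with a 48-hour exposure period. GI50: concentration for 50% inhibition of growth.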 Calls of active or inactive are those of the source. Rule as the data show it: active = GI50 up to about 1.1 µM and inactive = higher.

Among the test systems are HT-29; OVCAR-5; SNB-75; U-251; SK-MEL-2; HCT-15; A549; M19-MEL; UACC-62; RPMI-8226; SF-539; HOP-92; ACHN; OVCAR-8; SF-268; IGROV-1; SN12C.
What all share (test): NCI-60 cell line screen, 48 h

As to `O=C1C[C@H](c2ccc(O)c(O)c2)Oc2cc(O)cc(O)c21`, the GI50 in the assay on HT-29 was > 100 µM (inactive); in the assay on OVCAR-5, > 100 µM (inactive); in the assay on SNB-75, 83.9 µM (inactive); with U-251, 82.4 µM (inactive); with SK-MEL-2, > 100 µM (inactive); with HCT-15, over 100 µM. For the same compound, the GI50 was > 100 µM (inactive) with A549; > 100 µM (inactive) with M19-MEL; 61.7 µM (inactive) in the assay on UACC-62; > 100 µM (inactive) in the assay with RPMI-8226; > 100 µM (inactive) in the assay with SF-539; 56.8 µM (inactive) in the assay on HOP-92. Besides, the GI50 is 65.8 µM (inactive) in the assay on ACHN; > 100 µM (inactive) in the assay on OVCAR-8; 63.5 µM (inactive) in the assay with SF-268; > 100 µM (inactive) with IGROV-1; > 100 µM (inactive) with SN12C.
As for `CN(C)c1nc(N(C)C)sc(=O)n1`, the GI50 was > 100 µM (inactive) with HT-29; > 100 µM (inactive) with OVCAR-5; > 100 µM (inactive) in the assay on SNB-75; > 100 µM (inactive) in the assay with U-251; > 100 µM (inactive) with SK-MEL-2; over 100 µM in the assay on HCT-15. Besides, the GI50 with A549, in the assay with M19-MEL, in the assay with UACC-62, in the assay on RPMI-8226, in the assay on SF-539 and in the assay on HOP-92 was > 100 µM (inactive) throughout. The GI50 in the assay on ACHN, in the assay with OVCAR-8, in the assay on SF-268, with IGROV-1 and in the assay on SN12C was > 100 µM (inactive) throughout.
As for `CCS/C(=N\c1ccccc1)SC`, the GI50 in the assay on HT-29 is > 100 µM (inactive); with OVCAR-5, > 100 µM (inactive); with SNB-75 it was 51.8 µM (inactive); in the assay with U-251 it was > 100 µM (inactive); in the assay with SK-MEL-2 it was > 100 µM (inactive); in the assay on HCT-15, over 100 µM. For the same compound, the GI50 with A549, with M19-MEL, in the assay on UACC-62, in the assay on RPMI-8226, in the assay on SF-539 and in the assay with HOP-92 was > 100 µM (inactive) in each case. Besides, the GI50 in the assay on ACHN, with OVCAR-8, in the assay with SF-268, with IGROV-1 and in the assay on SN12C was > 100 µM (inactive) throughout.
Take `O/N=C1/C(=C/c2ccc(Oc3ccccc3)cc2)CCCC1C(NO)c1ccc(Oc2ccccc2)cc1` (stereo not drawn): the GI50 in the assay with HT-29 is 16.1 µM (inactive); in the assay with OVCAR-5, 63 µM (inactive); in the assay with SNB-75 it was 69.8 µM (inactive); with U-251, 51.2 µM (inactive); with SK-MEL-2, 45.6 µM (inactive); with HCT-15 it was 47 µM. The GI50 is 13.8 µM (inactive) with A549; 39.6 µM (inactive) with M19-MEL; 43.9 µM (inactive) in the assay with UACC-62; 18.2 µM (inactive) in the assay with RPMI-8226; 40 µM (inactive) in the assay on SF-539; 17.9 µM (inactive) in the assay with HOP-92. The GI50 in the assay with ACHN is 24 µM (inactive); with OVCAR-8 it was 26.4 µM (inactive); in the assay on SF-268, 37.2 µM (inactive); in the assay on IGROV-1, 29.1 µM (inactive); in the assay with SN12C, 22.8 µM (inactive).
